Data published in patent publication US8765729B2, “Cancer therapy” (Aeolus Sciences, Inc., priority 2001, dated 2014).
“Also recorded” adds a separate entry of the source. Where two headings read alike, the source gives them in different places.

Assays:
[1] = Pharmacokinetic profile of MnTBAP in mice (serum and lung); conditions: 10 mg/kg ip; for Peak Level (Co): two-compartment fit
[2] = system: L2, CPA-47 and A549 cells; test: Cytotoxicity measured by LDH release; conditions: 100 μM, 48 hours
mice = conditions: 48 hours; for deaths: 4 mice
Protocol: Animals and treatments. Balb/c male mice that were 6-8 weeks of age were utilized in these studies (Taconic, Germantown, N.Y.). Mice were acclimated to 22° C. in an environmentally controlled room (12-hr light cycles) at least 6 days prior to treatment. Toxicity studies were employed using a moving average method previously described by Weil (Weil, Biometrics 8:249-263 (1952)). Groups of 4 mice were given MnTBAP (50, 88, 153 and 268 mg/kg, ip) and observed over a 48 hour time period.
MnTBAP toxicity was assessed using a moving average method that consisted of four geometric dose groups (50, 88, 153 and 268 mg/kg, ip) of 4 mice each over 48 hours.

tumor cells (A549) = system: tumor cells (A549)
Protocol: (§1) Two non-tumor cell lines (rat lung epithelial cells, L2; bovine endothelial cells, CPA-47) and one tumor cell line (human adenocarcinoma lung cells, A549) were examined for cell proliferation in the presence or absence of manganic porphyrins. Cells were plated in 24 well plates at 10,000 cells per well in the presence of cytotoxic agent (0-10 mM paraquat) for 24-48 hours plus increasing concentrations of MnTBAP, MnMm-4-PyP and their zinc analogs.

[3] = system: rat lung epithelial cells, L2; bovine endothelial cells, CPA-47
Protocol: as §1

[4] = system: bleomycin-induced pulmonary fibrosis; test: Bleomycin-induced pulmonary fibrosis in mice
Protocol: Noninvasive measurement of airway constriction in mice. The baseline resistance in unrestrained, conscious mice was assessed by whole body barometric plethysmography (Buxco Electronics, Troy, N.Y.). The techniques used were similar to those described by Zhu et al, J. Clin. Invest. 103(6):779-88 (1999)). Mice were placed in whole body plethysmographs with fast differential transducers interfaced to a computer. Measurements were made of respiratory rates, tidal volumes and enhanced pause (PENH). Airway constriction was expressed as PENH=[(Te/0.3Tr)−1]×[2Pef/3Pif], where Te=expiratory time (seconds), Tr=relaxation time (seconds), Pef=peak expiratory flow ([…]), and Pif=peak inspiratory flow (ml/second). Animals were allowed to equilibrate in the chambers for 15 minutes and then PENH was calculated over a 5-minute period.
Hydroxyproline measurement. The lungs were dried at 80° C. until a constant weight is obtained. The dried lungs were hydrolyzed under vacuum in a glass vial in 1 ml of 12 N HCl at 120° C. overnight. The samples were lyophilized and assayed for hydroxyproline content using chloramine-T as previously described (Woessner, Arch. Biochem. Biophys. 93:440-447 (1961)). Histopathology. The lungs were fixed in 4% paraformaldehyde for 24 hours and then processed for paraffin embedding. Sections of lung were stained with routine hematoxylin and eosin or with a Masson trichrome stain to assess the degree of fibrosis. The extent of lung injury and fibrosis was graded by four pathologists, blinded as to the treatment group, on a scale of one (no injury) to ten (severe injury/fibrosis). The major criteria examined included interstitial thickening, collagen deposition, type 2 cell hyperplasia, and inflammatory cell infiltration. Statistical Analyses. Data was analyzed using a two-way analysis of variance (ANOVA) or a one-way ANOVA if no significant interactions were found with the two-way ANOVA. Significant differences between groups were assessed using a Newman-Keuls multiple comparison test. Data was analyzed using a computer program, Prizm (Graph Pad Software, San Diego, Calif.). Statistical significance was set at p<0.05. Results Toxicity and Pharmacokinetic Assessment of MnTBAP in Mice
Mice were randomized into 4 groups using a two by two contingency table where two groups received either saline or bleomycin (3.5 U/kg body weight) by intratracheal instillation. Two groups also received either saline or MnTBAP (5 mg/kg body weight) by ip injection twice daily for 14 days.
Bleomycin given by intratracheal instillation produces a marked airway and alveolar fibrotic response (Evans et al, Am Rev. Respir. Dis. 125(1):89-94 (1982)). Mice were assessed for changes in airway function by measuring a marker, enhanced pause (PENH), of airway narrowing using non-invasive whole body barometric plethysmography. […] Lung fibrosis was also assessed by measuring hydroxyproline content in the lung as an index of collagen accumulation.
One lung from each mouse was instillation fixed with 4% paraformaldehyde and paraffin embedded for histopathology assessment. Tissue sections were stained with hematoxylin and eosin or with Masson trichrome stain to assess the degree of lung injury/fibrosis.

O=C(O)c1ccc(-c2c3nc(c(-c4ccc(C(=O)O)cc4)c4ccc([n-]4)c(-c4ccc(C(=O)O)cc4)c4nc(c(-c5ccc(C(=O)O)cc5)c5ccc2[n-]5)C=C4)C=C3)cc1.[Mn+3] [MnTBAP, manganese (III) tetrakis (4-benzoic acid) porphyrin]
accumulation in the lung [1]: does not accumulate in the lung | Distribution half-life (T1/2) ([1]; lung): 0.233 h | Elimination half-life (T1/2) ([1]; lung): 9.5 h | Peak Level (Co) ([1]; lung): 80 μg/g protein | Distribution half-life (T1/2) ([1]; serum): 0.45 h | Elimination half-life (T1/2) ([1]; serum): 9.5 h | Peak Level (Co) ([1]; serum): 42 mg/L | cytotoxicity (LDH release) [2]: None of the compounds produced cytotoxicity | deaths (mice; 50 mg/kg ip): no deaths | deaths (mice; 88 mg/kg ip): 1 | LD50 (mice; ip, 95% confidence interval 98-104 mg/kg): 100 mg/kg | paraquat-mediated cytotoxicity in tumor cells (tumor cells (A549)): potentiated paraquat-mediated cytotoxicity | relative efficiency of potentiation of paraquat cytotoxicity (tumor cells (A549); A549): more efficient than MnTM-4-PyP | cytotoxic effects of paraquat in non-tumor cells [3]: protected non-tumor cells against the cytotoxic effects of paraquat | decrease in airway constriction (PENH) produced by bleomycin ([4]; 5 mg/kg ip twice daily, 14 days): 30% | bleomycin-induced weight loss ([4]; FIG. 8, after 5 days to end of study): attenuates bleomycin-induced weight loss | bleomycin-induced airway constriction and collagen accumulation ([4]; FIG. 9, PENH and hydroxyproline, 14 days): attenuates bleomycin-induced airway constriction and collagen accumulation | bleomycin-induced lung injury by histopathology ([4]; FIGS. 10, 11): attenuates bleomycin-induced pulmonary injury; also recorded: attenuates bleomycin-induced lung injury | PENH marker ([4]; MnTBAP alone): did not affect the PENH marker | hydroxyproline content of the lung ([4]; MnTBAP alone): little effect | lung histology ([4]; MnTBAP alone): no effect on lung histology | pathology score ([4]; MnTBAP alone): no effect on the pathology score | weight loss compared to saline control ([4]; MnTBAP alone 5 mg/kg ip twice daily, 14 days): did not cause weight loss | maximum average loss of initial body weight ([4]; bleomycin 3.5 U/kg it plus MnTBAP 5 mg/kg ip twice daily, 14 days, bleomycin alone 20%): 10% | collagen accumulation by trichrome staining ([4]; bleomycin plus MnTBAP): decreased the collagen accumulation | attenuation of bleomycin pathology score ([4]; fibrosis score scale 0-8, 14 days): 28% | interstitial thickening and inflammatory responses produced by bleomycin ([4]; histopathology, hematoxylin and eosin): attenuated the marked interstitial thickening and inflammatory responses | decrease in hydroxyproline content caused by bleomycin ([4]; lung, 5 mg/kg ip twice daily, 14 days): 23% | attenuation of bleomycin-induced increases in the various indices ([4]; physiologic, biochemical and pathology indices): roughly 30%
